Data: US4382925A
Values after ≈ are worked out from the molar mass of the structure shown. “Also recorded” adds a separate entry of the source. Where two headings read alike, the source gives them in different places.

Experiments:
[1] = system: (Methyl-^3 H)TdR incorporation into cell DNA, PRK cell cultures; conditions: separate experiments reported by De Clercq et al., PNAS 76, 2947-2951 (1979); cited from earlier work
[2] = system: (2-^14 C)UdR incorporation into cell DNA, PRK cell cultures; conditions: separate experiments reported by De Clercq et al., PNAS 76, 2947-2951 (1979); cited from earlier work
[3] = system: herpes simplex-1 (strain KOS) virus; conditions: separate experiments, De Clercq et al., PNAS 1979; cited from earlier work
[4] = system: Herpes simplex-1 strain F; experiment: Inhibition of cytopathic effect of herpes simplex-1 virus strain F in PRK cell cultures (Test 1); assay type: cell-based; conditions: PRK cells, average of three experiments, read-out: ID50, Herpes simplex-1 strain F (PRK)
[5] = system: vaccinia virus; experiment: microbe, parasite or virus in culture; assay type: cell-based; conditions: Orthopoxvirus vaccinia
[6] = system: cell culture; conditions: prior art literature; cited from earlier work
[7] = system: Herpes simplex-1 strain McIntyre; experiment: Inhibition of cytopathic effect of herpes simplex-1 virus strain McIntyre in PRK cell cultures (Test 1); assay type: cell-based; conditions: PRK cells, average of three experiments, read-out: ID50, Herpes simplex-1 strain McIntyre (PRK)
[8] = system: Herpes simplex-1 strain KOS; experiment: Inhibition of cytopathic effect of herpes simplex-1 virus strain KOS in PRK and HSF cell cultures (Test 1); assay type: cell-based; conditions: average of three experiments
[9] = system: herpes simplex-1 (strain KOS) virus; conditions: dose 10 μl/ml [sic]
[10] = Antimetabolic activity in PRK cell cultures: (methyl-^3 H)TdR incorporation into cell DNA (Test 3); assay type: cell-based; conditions: rabbit, PRK cells, read-out: ID50, (Methyl-^3 H)TdR incorporation into cell DNA
Protocol: (§1) To this end, the incorporation of certain radiolabelled DNA precursors into DNA of the cells, and the effect of 5-(2-halogenovinyl)-2'-deoxycytidines and related compounds thereon, was tested. The technique has been described by De Clercq et al in Biochemical Pharmacology, 26, 794-797 (1977) and by De Clercq et al in Molecular Pharmacology, 14, 422-430, (1978).
(§2) The DNA precursors as used were (methyl-^3 H), (2'-deoxythymidine ) (TdR), and (2-^14 C) (2'-deoxyuridine) (UdR).
(§3) The cells were exposed to 0.12 μCi:0.01 nmol (methyl-^3 H)TdR (per 10^5 cells) or 14 μCi/250 nmol (2-^14 C) UdR (per 10^5 cells) for 16 hours in the presence of varying concentrations of the compounds (ranging from 1 to 200 μg/ml). Incorporation of the radiolabelled precursor was then measured as described and the ID50 was determined. ID50 corresponds to the inhibitory dose-50, that is the concentration of compound required to inhibit incorporation of either (methyl-^3 H)TdR or (2-^14 C)UdR by 50%.

[11] = system: cell culture; experiment: Toxicity in cell culture, overall statements; assay type: cell-based; conditions: in words
Protocol: as §3

[12] = system: herpes simplex virus; experiment: Antiviral activity against herpes simplex virus in cell culture, overall statements; assay type: cell-based; conditions: in words
[13] = Antimetabolic activity in PRK cell cultures: (2-^14 C)UdR incorporation into cell DNA (Test 3); assay type: cell-based; conditions: rabbit, PRK cells, read-out: ID50, (2-^14 C)UdR incorporation into cell DNA
Protocol: as §1, §2, §3

[14] = system: herpes simplex virus; conditions: De Clercq et al., PNAS 76, 2947-2951 (1979); cited from earlier work
[15] = system: herpes simplex-1 (strain KOS) virus; experiment: Antiviral index in PRK cell cultures (Test 4); assay type: cell-based, herpes simplex-1 virus; conditions: ratio of ID50 for (2-^14 C)UdR incorporation to ID50 for herpes simplex-1 (strain KOS), PRK cells
Protocol: The antiviral index was determined as the ratio of ID50 for (2-^14 C)UdR incorporation into cell DNA to ID50 for herpes simplex-1 (strain KOS) virus replication (compare Tables 1 and 3).

[16] = HSF, read-out: ID50, Vaccinia (HSF)
[17] = PRK, read-out: ID50, Vaccinia (PRK)
[18] = HSF cells, read-out: ID50, Herpes simplex-1 strain KOS (HSF)
[19] = PRK cells, read-out: ID50, Herpes simplex-1 strain KOS (PRK)

O=c1[nH]c(=O)n([C@H]2C[C@H](O)[C@@H](CO)O2)cc1I [5-iodo-2'-deoxyuridine]
ID50, (Methyl-^3 H)TdR incorporation into cell DNA (data in parentheses) [1]: 2.5 µg/mL (≈ 7.06 µM) | ID50, (2-^14 C)UdR incorporation into cell DNA (data in parentheses) [2]: 1.2 µg/mL (≈ 3.39 µM) | Antiviral index (numbers in parentheses) [3]: 12 | IC50 [4]: 0.2 µg/mL (≈ 0.565 µM) | IC50 [5, 16]: 0.2 µg/mL (≈ 0.565 µM) | IC50 [5, 17]: 0.02 µg/mL (≈ 0.0565 µM) | toxicity in cell culture, reported [6]: cannot be neglected | IC50 [7]: 0.15 µg/mL (≈ 0.424 µM) | IC50 [8, 18]: 0.2 µg/mL (≈ 0.565 µM) | IC50 [8, 19]: 0.1 µg/mL (≈ 0.282 µM) | Reduction in virus yield as compared to control (untreated virus-infected) cell cultures ([9]; 1 day after infection): 4.0 log10 PFU/ml | Reduction in virus yield as compared to control (untreated virus-infected) cell cultures ([9]; 2 days after infection): 2.6 log10 PFU/ml | Reduction in virus yield as compared to control (untreated virus-infected) cell cultures ([9]; 3 days after infection): 1.9 log10 PFU/ml

Nc1nc(=O)n([C@H]2C[C@H](O)[C@@H](CO)O2)cc1/C=C/Br [E-5-(2-bromovinyl)-2'-deoxycytidine]
IC50 at 16 h [10]: > 200 µg/mL | IC50 [4]: 0.1 µg/mL (≈ 0.301 µM) | toxicity in cell culture [11]: apparently nil; also recorded: apparent lack of toxicity in cell culture | specific antiviral activity against herpes simplex virus [12]: excellent and highly specific antiviral activity against herpes simplex virus; also recorded: very specific towards herpes simplex virus | IC50 [5, 16]: 2 µg/mL (≈ 6.02 µM) | IC50 [5, 17]: 10 µg/mL (≈ 30.1 µM) | IC50 [7]: 0.07 µg/mL (≈ 0.211 µM) | IC50 at 16 h [13]: > 200 µg/mL | IC50 [8, 18]: 0.07 µg/mL (≈ 0.211 µM) | IC50 [8, 19]: 0.07 µg/mL (≈ 0.211 µM) | Reduction in virus yield as compared to control (untreated virus-infected) cell cultures ([9]; 1 day after infection): 3.8 log10 PFU/ml | Reduction in virus yield as compared to control (untreated virus-infected) cell cultures ([9]; 2 days after infection): 2.9 log10 PFU/ml | Reduction in virus yield as compared to control (untreated virus-infected) cell cultures ([9]; 3 days after infection): 2.2 log10 PFU/ml

O=c1[nH]c(=O)n([C@H]2C[C@H](O)[C@@H](CO)O2)cc1/C=C/Br [E-5-(2-bromovinyl)-2'-deoxyuridine]
ID50, (Methyl-^3 H)TdR incorporation into cell DNA (data in parentheses) [1]: 70 µg/mL (≈ 210 µM) | ID50, (2-^14 C)UdR incorporation into cell DNA (data in parentheses) [2]: 70 µg/mL (≈ 210 µM) | antiviral activity against herpes simplex virus, reported [14]: specific antiviral activity against herpes simplex virus | IC50 at 16 h [10]: 100 µg/mL (≈ 300 µM) | Antiviral index (numbers in parentheses) [3]: 10000 | IC50 [4]: 0.01 µg/mL (≈ 0.03 µM) | IC50 [5, 16]: 0.7 µg/mL (≈ 2.1 µM) | IC50 [5, 17]: 7 µg/mL (≈ 21 µM) | toxicity in cell culture, reported [6]: low toxicity in cell culture | IC50 [7]: 0.01 µg/mL (≈ 0.03 µM) | Antiviral index [15]: 14300 | IC50 at 16 h [13]: 100 µg/mL (≈ 300 µM) | IC50 [8, 18]: 0.01 µg/mL (≈ 0.03 µM) | IC50 [8, 19]: 0.007 µg/mL (≈ 0.021 µM)

Nc1nc(=O)n([C@H]2C[C@H](O)[C@@H](CO)O2)cc1/C=C/I [E-5-(2-iodovinyl)-2'-deoxycytidine]
IC50 at 16 h [10]: > 200 µg/mL | IC50 [4]: 0.2 µg/mL (≈ 0.527 µM) | toxicity in cell culture [11]: apparently nil; also recorded: apparent lack of toxicity in cell culture | specific antiviral activity against herpes simplex virus [12]: excellent and highly specific antiviral activity against herpes simplex virus; also recorded: very specific towards herpes simplex virus | IC50 [5, 16]: 7 µg/mL (≈ 18.5 µM) | IC50 [5, 17]: 10 µg/mL (≈ 26.4 µM) | IC50 [7]: 0.07 µg/mL (≈ 0.185 µM) | IC50 at 16 h [13]: > 200 µg/mL | IC50 [8, 18]: 0.07 µg/mL (≈ 0.185 µM) | IC50 [8, 19]: 0.1 µg/mL (≈ 0.264 µM) | Reduction in virus yield as compared to control (untreated virus-infected) cell cultures ([9]; 1 day after infection): 4.3 log10 PFU/ml | Reduction in virus yield as compared to control (untreated virus-infected) cell cultures ([9]; 2 days after infection): 2.8 log10 PFU/ml | Reduction in virus yield as compared to control (untreated virus-infected) cell cultures ([9]; 3 days after infection): 2.0 log10 PFU/ml

O=c1[nH]c(=O)n([C@H]2C[C@H](O)[C@@H](CO)O2)cc1/C=C/I [E-5-(2-iodovinyl)-2'-deoxyuridine]
ID50, (Methyl-^3 H)TdR incorporation into cell DNA (data in parentheses) [1]: 70 µg/mL (≈ 184 µM) | ID50, (2-^14 C)UdR incorporation into cell DNA (data in parentheses) [2]: 70 µg/mL (≈ 184 µM) | antiviral activity against herpes simplex virus, reported [14]: specific antiviral activity against herpes simplex virus | IC50 at 16 h [10]: 80 µg/mL (≈ 210 µM) | Antiviral index (numbers in parentheses) [3]: 7000 | IC50 [4]: 0.01 µg/mL (≈ 0.0263 µM) | IC50 [5, 16]: 1 µg/mL (≈ 2.63 µM) | IC50 [5, 17]: 10 µg/mL (≈ 26.3 µM) | toxicity in cell culture, reported [6]: low toxicity in cell culture | IC50 [7]: 0.01 µg/mL (≈ 0.0263 µM) | Antiviral index [15]: 15000 | IC50 at 16 h [13]: 150 µg/mL (≈ 395 µM) | IC50 [8, 18]: 0.02 µg/mL (≈ 0.0526 µM) | IC50 [8, 19]: 0.01 µg/mL (≈ 0.0263 µM)
